In patent publication US10258583B2, “Extended release liquid compositions of guanfacine” (SUN PHARMACEUTICAL INDUSTRIES LIMITED, priority 2014, dated 2019):

Columns and labels:
[1] = Osmolality measurements (Osmomat 030-D); format: physicochemical; conditions: samples of composition prepared as per Example 13
Source text: The term “osmolality,” as used herein, means the number of moles of any water-soluble compound per kg of the carrier. In the present invention, the osmolality may be measured according to known methods, such as using a Vapor pressure Osmometer, a Colloid Osmometer, or a Freezing Point Depression Osmometer such as Osmomat® 030-D or Osmomat® 3000, in particular by a Freezing Point Depression Osmometer. In the present invention, pharmaceutically acceptable carrier has an osmolality of about 1 osmol/kg or more than about 1 osmol/kg of the pharmaceutically acceptable carrier.
The term “osmolality ratio,” as used herein, means the ratio of osmolality of the external phase to the osmolality of the internal phase. […]
Xylitol, microcrystalline cellulose-sodium carboxymethyl cellulose, xanthan gum, strawberry flavor, sucralose, citric acid, methyl paraben, propyl paraben and colloidal silicon dioxide, purified water were mixed as per Example 13. This suspension was then filtered and diluted with purified water, and the osmolality of the external phase was measured using Osmomat 030-D.
Various solutions having various concentrations of sodium chloride were prepared as per Examples (A)-(D). The osmolalities of these solutions were measured using Osmomat 030-D.
Sodium chloride was dissolved in purified water as per Examples A-D. The osmolality of these solutions were measured using Osmomat 030-D.

[2] = cited from earlier work
[3] = pH dependent degradation profile - solution state stability; format: physicochemical
Source text: Guanfacine, particularly guanfacine hydrochloride, is found to degrade at high pH values. […] One of the major impurity of guanfacine is 2,6-dichlorophenyl acetic acid. [table]

Osmolality [1]: 0.006 OSMOL/Kg
% Assay ([3]; pH 1.2, 0 hours): 101.2%
% Assay ([3]; pH 1.2, 1 hour): 101.2%
% Assay ([3]; pH 1.2, 4 hours): 101.2%
% Assay ([3]; pH 1.2, 8 hours): 101.1%
% Assay ([3]; pH 1.2, 16 hours): 101.6%
% Assay ([3]; pH 1.2, 24 hours): 101.4%
% Assay ([3]; pH 2.2, 0 hours): 100.3%
% Assay ([3]; pH 2.2, 1 hour): 100.5%
% Assay ([3]; pH 2.2, 4 hours): 100.4%
% Assay ([3]; pH 2.2, 8 hours): 100.4%
% Assay ([3]; pH 2.2, 16 hours): 100.3%
% Assay ([3]; pH 2.2, 24 hours): 100.2%
% Assay ([3]; pH 4.5, 0 hours): 99.4%
% Assay ([3]; pH 4.5, 1 hour): 99.0%
% Assay ([3]; pH 4.5, 4 hours): 98.7%
% Assay ([3]; pH 4.5, 8 hours): 98.9%
% Assay ([3]; pH 4.5, 16 hours): 98.7%
% Assay ([3]; pH 4.5, 24 hours): 98.5%
% Assay ([3]; pH 6.8, 0 hours): 99.5%
% Assay ([3]; pH 6.8, 1 hour): 99.0%
% Assay ([3]; pH 6.8, 4 hours): 97.2%
% Assay ([3]; pH 6.8, 8 hours): 93.7%
% Assay ([3]; pH 6.8, 16 hours): 86.3%
% Assay ([3]; pH 6.8, 24 hours): 79.9%
% Assay ([3]; pH 7.5, 0 hours): 100.9%
% Assay ([3]; pH 7.5, 1 hour): 99.9%
% Assay ([3]; pH 7.5, 4 hours): 97.1%
% Assay ([3]; pH 7.5, 8 hours): 92.2%
% Assay ([3]; pH 7.5, 16 hours, listed as guanfacine, monohydrochloride): 84%
% Assay ([3]; pH 7.5, 16 hours, monohydrochloride): 84.0%
% Assay ([3]; pH 7.5, 24 hours): 77.5%
SMILES: Cl.N=C(N)NC(=O)Cc1c(Cl)cccc1Cl [Guanfacine hydrochloride, N-amidino-2-(2,6-dichlorophenyl)-acetamide monohydrochloride]
solubility in acetone ([2]; acetone): slightly soluble
solubility in alcohol ([2]; alcohol): sparingly soluble
solubility in water ([2]; water): approximately 1 mg/mL
